# According to patent US20230181905A1, “Systems, Devices, and Methods for Enhancing the Neuroprotective Effects of Non-Invasive Gamma Stimulation with Pharmacological Agents” (Massachusetts Institute of Technology, priority 2021, published 2023):
# Columns and labels:
# CK-p25 mice = assay: Novel object recognition test in CK-p25 mice; type: in vivo, mouse
# Description: Given the neuroprotective effect of Plx3397+GENUS treatment, whether this treatment also impacted learning and memory was evaluated. Mice were tested in an open field (OF) and assessed for changes in anxiety and activity levels, followed by a novel object recognition (NOR) test of memory. 10-month-1d 5×FAD mice were treated with Plx3397. Following 20 days administration of Plx3397 chow, untreated- and Plx3397 treated 5×FAD mice (which continued PLX administration) were subjected to 30 days of daily GENUS. Mice were tested in OF and NOR during the last week of these treatments. […] Next, CK-p25 mice were treated for 42 days and assessed behavioral performance.
# For OF, mice were introduced into an open field box (dimensions: length=460 mm, width=460 mm and height=400 mm; TSE-Systems) and were tracked using Noldus (Ethovision) for 12 min, with time spent in the center and peripheral area of the arena measured. […] Mouse behavior was monitored for 7 min. Time spent exploring both the familiar and novel objects was recorded using Noldus and computed offline. Percentage of novelty preference index was calculated as follows: time exploring novel object (Nt) divided by total time exploring novel and familiar (Ft) objects and presented in %−{[Nt/Nt+Ft]*100}. […]
# [1] = system: excitatory neurons and interneurons of the visual cortex; assay: In vivo electrophysiology: single unit spiking and LFP phase locking; parameters: species or system mouse
# Description: Next, principal component analyses was performed using action potential properties, isolated single units, and further separated them into excitatory and interneurons (FIG. 15A).
# Single units were manually isolated by drawing cluster boundaries around the 3D projection of the recorded spikes, presented in SpikeSort3D software (Neuralynx).
# The relationship between spike firing times and LFP gamma phase was calculated by mean resultant length using the Circular Statistics Toolbox. Briefly, spikes were sorted and LFP traces were filtered using the continuous wavelet transform returning the instantaneous signal phase and amplitudes. Spike times were linearly interpolated to determine phase, with peaks and troughs of gamma defined as 0 and ±pi radians respectively. The resulting phase values were binned to generate firing probabilities, for each 20-degree interval. […] All analyses were performed using MATLAB.
# Spikes: Single units were manually isolated by drawing cluster boundaries around the 3D projection of the recorded spikes, presented in SpikeSort3D software (Neuralynx).
# Single unit—LFP phase locking: The relationship between spike spiking times and LFP gamma phase was calculated by mean resultant length using the Circular Statistics Toolbox MATLAB File Exchange Function.
# Briefly, spikes were sorted and LFP traces were filtered using the continuous wavelet transform returning the instantaneous signal phase and amplitudes. Spike times were linearly interpolated to determine phase, with peaks and troughs of gamma defined as 0 and ±pi radians respectively. The resulting phase values were binned to generate spiking probabilities, for each 20-degree interval. […] All analyses were performed using MATLAB. All in vivo electrophysiological analyses were conducted in MATLAB (Mathworks, #R2019a) utilizing signal processing and image processing toolboxes.
# [2] = Plx3397 treated 5×FAD mice, baseline
# [3] = Plx3397 treated 5×FAD mice, during acute 40 Hz entrainment
structure (smiles),measurement,setting,value
"FC(F)(F)c1ccc(CNc2ccc(Cc3c[nH]c4ncc(Cl)cc34)cn2)cn1 [Plx3397, Pexidartinib]",novel object recognition memory in the NOR test,CK-p25 mice; CK-p25 mice treated for 42 days,significantly improved
same,novel object recognition memory in the NOR test (novelty index),"CK-p25 mice; CK-p25 mice, control 54.82±3.70",70.52±2.89
same,overall mean spiking rate of E-neurons and I-neurons,"[1]; 5×FAD mice, Plx3397 diet 50 days vs control",no differences
same,% of E-neurons and I-neurons phase-locked to 3-12 Hz theta oscillations,"[1]; 5×FAD mice, Plx3397 vs control",reduction
same,percentage of E-neurons and I-neurons phase-locked to 30-50 Hz gamma oscillations,"[1]; 5×FAD mice, Plx3397 vs control",less phase-locked
same,strength of phase-locked neurons to gamma oscillations,"[1]; 5×FAD mice, Plx3397 vs control",without significant difference
same,strength of theta phase-locking of neurons,"[1]; 5×FAD mice, Plx3397 vs control",increase
same,I-neurons showing 40 Hz entrainment,"[1]; Plx3397 treated 5×FAD mice, acute 40 Hz entrainment, of the 47 I-neurons",13 neurons
same,percentage of I-neurons phase-locked to gamma,[1]; [2],34.04%
same,percentage of gamma phase-locked E-neurons,[1]; [2],35.64%
same,percentage of I-neurons phase-locked to gamma,[1]; [3],65.95%
same,percentage of gamma phase-locked E-neurons,[1]; [3],46.53%
same,gamma phase-locking strength of E-neurons and I-neurons,"[1]; Plx3397 treated 5×FAD mice, during acute 40 Hz entrainment vs baseline",enhanced
